Measured values taken from patent US8129396B2, “2-[1H-benzimidazol-2(3H)-ylidene]-2-(pyrimidin-2-yl)acetamides and 2-[benzothiazol-2(3H)-ylidene]-2-(pyrimidin-2-yl)acetamides as kinase inhibitors” (Telik, Inc., priority 2008, dated 2012).
Like-named read-outs stand apart in the source and are kept apart here.

Legend:
[1] = test system: HUVEC-2 (human umbilical vein endothelial cells); test: HUVEC VEGF-dependent proliferation assay (BrdU); type: cell-based; details: read-out: HUVEC IC50
How it was run: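 HUVEC-2 cells on gelatin got serially diluted compound (0.5% DMSO final), and VEGF (25 ng/mL) was added 2 hr later. BrdU (10 μM) went in after one day, with labelling for another day. VEGF-dependent proliferation was read by BrdU detection, in triplicate.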

[2] = molecular target: T1, Aurora A kinase (Homo sapiens, UniProt O14965); test: Aurora A kinase assay (IMAP fluorescence polarization); type: biochemical; details: 10 μM ATP; rounded to 1 significant figure; read-out: Aur-A IC50
T1 construct: purchased Upstate Biotech
T1 sequence (O14965 1-403): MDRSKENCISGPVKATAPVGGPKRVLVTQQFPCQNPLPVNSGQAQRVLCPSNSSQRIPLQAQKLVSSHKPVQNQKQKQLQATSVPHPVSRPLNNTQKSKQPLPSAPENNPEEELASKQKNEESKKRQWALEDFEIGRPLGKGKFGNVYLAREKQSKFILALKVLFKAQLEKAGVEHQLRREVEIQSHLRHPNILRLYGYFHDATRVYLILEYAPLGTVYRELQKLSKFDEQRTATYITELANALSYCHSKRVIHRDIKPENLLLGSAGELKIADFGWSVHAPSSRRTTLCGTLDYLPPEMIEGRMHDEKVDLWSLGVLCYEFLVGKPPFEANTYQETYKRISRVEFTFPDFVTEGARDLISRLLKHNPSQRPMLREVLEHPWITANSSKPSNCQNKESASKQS
How it was run: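 Compounds (eight 3-fold dilutions, 2.5% DMSO final) were preincubated 5 min at room temperature with Aurora A kinase in buffer with 1 mM DTT. Reaction with 100 nM fluorescein-PKAtide and 10 μM ATP ran 45 min at room temperature, then was stopped with IMAP binding reagent; fluorescence polarization was read after 30 min.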

[3] = molecular target: T2, Aurora B kinase (Homo sapiens, UniProt Q96GD4); test: Aurora B kinase assay (IMAP fluorescence polarization); type: biochemical; details: 10 μM ATP; rounded to 1 significant figure; read-out: Aur-B IC50
T2 construct: purchased BPS Bioscience
How it was run: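 Reaction started with 100 nM fluorescein-labelled PKAtide and 10 μM ATP, run 45 min at room temperature, then stopped with IMAP binding reagent (1:400). After 30 min shaking at room temperature, fluorescence polarization read; run in duplicate with solvent control.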

[4] = molecular target: T3, VEGFR2 kinase (Homo sapiens, UniProt P35968); test: VEGFR2 kinase assay; type: biochemical; details: 6 μM ATP, 1 mM MnCl2; rounded to 1 significant figure
T3 construct: purchased Cell Signaling Technology
How it was run: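 VEGFR2 phosphorylates CSKtide with 6 μM ATP and 1 mM MnCl2 for 1 hr, otherwise following the Aurora A kinase protocol. Detection by IMAP fluorescence polarization, binding reagent diluted 1:1200 in 1:1 binding buffer A/B. Run in duplicate with solvent control.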

[5] = test system: p-H3 in HCT116 cells; test: Histone phosphorylation (p-H3) assay; type: cell-based; details: Homo sapiens, read-out: p-H3 IC50
How it was run: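 HCT116 cells (2.5×10^4/well, attached overnight) treated 4 h with 8-point 3-fold compound dilutions at 0.5% DMSO. Lysates dot-blotted onto nitrocellulose and probed for p-H3 with β-actin on the same membrane, fluorescent secondary antibodies, Odyssey scan; duplicate wells.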

[6] = test system: HCT116 (human colon carcinoma) cells; test: HCT116 cytotoxicity assay (CellTiter-Glo); type: cell-based; details: HCT-116, 72 h, read-out: HCT116 IC50
[7] = test system: HL60 (human promyelocytic leukemia) cells; test: HL60 cytotoxicity assay (CellTiter-Glo); type: cell-based; details: HL-60, 72 h, read-out: HL60 IC50
[8] = VEGF (25 ng/mL)-dependent proliferation
[9] = HCT-116, HCT116 cells, 4 hr incubation
[10] = cytotoxicity, three days culture

T3 sequence (P35968 20-1356): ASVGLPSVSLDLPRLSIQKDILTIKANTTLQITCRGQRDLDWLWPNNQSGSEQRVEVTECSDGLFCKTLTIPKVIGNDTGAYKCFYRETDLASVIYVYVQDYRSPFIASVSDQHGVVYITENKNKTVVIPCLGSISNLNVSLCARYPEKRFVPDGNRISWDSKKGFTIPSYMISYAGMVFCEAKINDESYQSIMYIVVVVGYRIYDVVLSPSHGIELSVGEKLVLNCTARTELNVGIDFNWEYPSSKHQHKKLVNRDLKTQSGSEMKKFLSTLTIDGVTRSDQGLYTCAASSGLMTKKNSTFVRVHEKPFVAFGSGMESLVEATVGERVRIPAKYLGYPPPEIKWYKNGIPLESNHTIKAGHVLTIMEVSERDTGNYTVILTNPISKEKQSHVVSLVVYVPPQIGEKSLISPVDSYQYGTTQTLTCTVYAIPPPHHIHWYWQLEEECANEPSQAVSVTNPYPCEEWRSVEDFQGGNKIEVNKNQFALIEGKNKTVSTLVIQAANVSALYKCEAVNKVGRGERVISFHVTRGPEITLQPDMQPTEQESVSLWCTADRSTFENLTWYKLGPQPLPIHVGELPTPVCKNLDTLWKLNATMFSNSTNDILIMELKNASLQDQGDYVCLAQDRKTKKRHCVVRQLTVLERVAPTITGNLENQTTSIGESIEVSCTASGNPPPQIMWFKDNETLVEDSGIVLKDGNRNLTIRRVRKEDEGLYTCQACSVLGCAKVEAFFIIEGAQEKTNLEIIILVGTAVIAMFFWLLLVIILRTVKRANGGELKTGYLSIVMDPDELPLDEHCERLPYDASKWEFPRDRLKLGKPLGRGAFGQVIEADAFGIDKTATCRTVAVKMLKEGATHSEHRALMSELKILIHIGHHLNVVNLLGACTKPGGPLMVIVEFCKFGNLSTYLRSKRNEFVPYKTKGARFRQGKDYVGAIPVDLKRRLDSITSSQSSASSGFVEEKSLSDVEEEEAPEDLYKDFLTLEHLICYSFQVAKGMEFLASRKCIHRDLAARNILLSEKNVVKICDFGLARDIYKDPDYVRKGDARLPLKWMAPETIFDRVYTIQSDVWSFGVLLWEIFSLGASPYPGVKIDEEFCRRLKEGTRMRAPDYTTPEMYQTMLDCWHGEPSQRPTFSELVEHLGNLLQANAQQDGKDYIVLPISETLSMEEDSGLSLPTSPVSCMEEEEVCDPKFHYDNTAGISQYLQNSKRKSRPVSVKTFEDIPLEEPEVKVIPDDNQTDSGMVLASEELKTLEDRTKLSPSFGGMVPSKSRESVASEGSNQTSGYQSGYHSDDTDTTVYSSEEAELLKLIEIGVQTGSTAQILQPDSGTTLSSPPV
T2 sequence (Q96GD4 whole entry): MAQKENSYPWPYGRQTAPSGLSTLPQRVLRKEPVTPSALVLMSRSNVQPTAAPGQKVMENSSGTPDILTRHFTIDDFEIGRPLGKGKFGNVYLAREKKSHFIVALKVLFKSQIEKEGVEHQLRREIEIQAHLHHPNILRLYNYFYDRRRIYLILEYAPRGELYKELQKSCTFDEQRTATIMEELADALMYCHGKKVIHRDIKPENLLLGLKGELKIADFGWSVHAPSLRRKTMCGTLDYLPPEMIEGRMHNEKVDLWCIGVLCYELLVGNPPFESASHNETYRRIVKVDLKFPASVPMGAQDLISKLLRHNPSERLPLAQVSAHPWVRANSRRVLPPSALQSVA

Row | Compound | IC50 [1, 8] | IC50 [2] | IC50 [3] | IC50 [4] | IC50 [5, 9] | IC50 [6, 10] | IC50 [7, 10] | IC50 [1] | IC50 ([5]; HCT-116, 4 h) | IC50 [6] | IC50 [7]
1 | NC(=O)/C(=C1\Nc2ccc(Cn3ccnc3)cc2N1)c1nccc(C(F)(F)F)n1 [Compound 90A] | 90 nM | 4 nM | 9 nM | 4 nM | 70 nM | 200 nM | 100 nM |  |  |  | 
2 | NC(=O)/C(=C1\Nc2ccc(Cn3ccnc3)cc2S1)c1nccc(C(F)(F)F)n1 [Compound 89A] | 80 nM | 5 nM | 5 nM | 6 nM | 100 nM | 500 nM | 700 nM |  |  |  | 
3 | NC(=O)/C(=C1\Nc2ccc(C(=O)NCCN3CCC(F)(F)CC3)cc2N1)c1nccc(C(F)(F)F)n1 [Compound 51A] | 30 nM | 7 nM | 6 nM | 20 nM | 300 nM | 500 nM | 50 nM |  |  |  | 
4 | CN(C)CC(=O)Nc1ccc2c(c1)N/C(=C(/C(N)=O)c1nccc(C(F)(F)F)n1)N2 [Compound 73A] | 100 nM | 10 nM | 5 nM | 6 nM | 100 nM | 200 nM | 200 nM |  |  |  | 
5 | NC(=O)/C(=C1\Nc2ccc(C(=O)NCCn3ccnc3)cc2S1)c1nccc(C(F)(F)F)n1 [Compound 47A] | 4 nM | 4 nM | 6 nM | 20 nM | 200 nM | 300 nM | 300 nM |  |  |  | 
6 | NC(=O)/C(=C1\Nc2ccc(C(=O)NCCN3CCOCC3)cc2N1)c1nccc(C(F)(F)F)n1 [Compound 53A] | 30 nM | 3 nM | 10 nM | 20 nM | 200 nM | 300 nM | 200 nM |  |  |  | 
7 | NC(=O)/C(=C1\Nc2ccc(S(=O)(=O)NCCCN3CCOCC3)cc2S1)c1nccc(C(F)(F)F)n1 [Compound 127A] | 40 nM | 20 nM | 6 nM | 20 nM | 200 nM | 600 nM | 500 nM |  |  |  | 
8 | CCN(CCCn1ccnc1)C(=O)c1ccc2c(c1)N/C(=C(/C(N)=O)c1nccc(C(F)(F)F)n1)N2 [Compound 48A] | 40 nM | 10 nM | 1 nM | 10 nM | 300 nM | 600 nM | 100 nM |  |  |  | 
9 | NC(=O)/C(=C1\Nc2ccc(C(=O)NCCCn3ccnc3)cc2N1)c1nccc(C(F)(F)F)n1 [Compound 45A] | 10 nM | 20 nM | 7 nM | 20 nM | 900 nM | 500 nM | 100 nM |  |  |  | 
10 | NC(=O)/C(=C1\Nc2ccc(NC(=O)CCN3CCOCC3)cc2N1)c1nccc(C(F)(F)F)n1 [Compound 84A] | 60 nM | 7 nM | 9 nM | 20 nM | 100 nM | 200 nM | 100 nM |  |  |  | 
11 | NC(=O)/C(=C1\Nc2ccc(CC(=O)NCCCN3CCOCC3)cc2S1)c1nccc(C(F)(F)F)n1 [Compound 110A] |  | 50 nM | 20 nM | 20 nM |  |  |  | 80 nM | 200 nM | 200 nM | 800 nM
12 | NC(=O)/C(=C1\Nc2ccc(C(=O)N3CCNCC3)cc2S1)c1nccc(C(F)(F)F)n1 [Compound 61A] | 20 nM | 20 nM | 10 nM | 4 nM | 30 nM | 100 nM | 200 nM |  |  |  | 
13 | NC(=O)/C(=C1\Nc2ccc(NC(=O)Cn3ccnc3)cc2N1)c1nccc(C(F)(F)F)n1 [Compound 86A] | 30 nM | 4 nM | 8 nM | 30 nM | 200 nM | 400 nM | 800 nM |  |  |  | 
14 | NC(=O)/C(=C1\Nc2ccc(CCN3CCS(=O)(=O)CC3)cc2S1)c1nccc(C(F)(F)F)n1 [Compound 100A] | 20 nM | 5 nM | 9 nM | 10 nM | 300 nM | 400 nM | 90 nM |  |  |  | 
15 | CN1CCC(C(=O)Nc2ccc3c(c2)N/C(=C(/C(N)=O)c2nccc(C(F)(F)F)n2)N3)CC1 [Compound 140A] | 20 nM | 6 nM | 9 nM | 20 nM | 400 nM | 400 nM | 300 nM |  |  |  | 
16 | NC(=O)/C(=C1\Nc2ccc(NC(=O)[C@H]3CCCN3)cc2N1)c1nccc(C(F)(F)F)n1 [Compound 79A] | 40 nM | 20 nM | 20 nM | 10 nM | 400 nM | 100 nM | 300 nM |  |  |  | 
17 | NC(=O)/C(=C1\Nc2ccc(CN3CCNCC3)cc2S1)c1nccc(C(F)(F)F)n1 [Compound 94A] | 50 nM | 7 nM | 7 nM | 10 nM | 80 nM | 200 nM | 100 nM |  |  |  | 
18 | CC(C)(N)C(=O)Nc1ccc2c(c1)N/C(=C(/C(N)=O)c1nccc(C(F)(F)F)n1)N2 [Compound 81A] | 80 nM | 6 nM | 7 nM | 9 nM | 90 nM | 300 nM | 200 nM |  |  |  | 
19 | NC(=O)/C(=C1\Nc2ccc(Oc3cccnc3)cc2S1)c1nccc(C(F)(F)F)n1 [Compound 118A] | 200 nM | 40 nM | 10 nM | 100 nM | 4000 nM | 2000 nM | 300 nM |  |  |  | 
20 | CN(C)CC(=O)Nc1ccc2c(c1)S/C(=C(/C(N)=O)c1nccc(C(F)(F)F)n1)N2 [Compound 74A] | 80 nM | 20 nM | 10 nM | 20 nM | 200 nM | 300 nM | 40 nM |  |  |  | 
